Results: patent publication EP4461731A1, “LIGANDS OF THE M6A-RNA READERS” (Universität Zürich, priority 2023, dated 2024)
Read-outs that look alike come from different tables or passages of the source.

How the values were obtained:
Cells [1] = assay: cells; settings: 72 h
Cells [2] = settings: read-out: Antiprolif. activity GI50; 72 h, CellTiter-Glo; cell line not named
[3] = read-out: Antiprolif. activity GI50, 72 h, CellTiter-Glo, cell line not named
[4] = read-out: Antiprolif. activity GI50

SMILES	GI50 (Cells [1]; [3])	GI50 (Cells [2])	GI50 (Cells [1]; [4])
CNc1nc(Cl)nc2c1ncn2Cc1cc(Cl)ccc1NS(C)(=O)=O [ZA400, N-(4-chloro-2-((2-chloro-6-(methylamino)-9H-purin-9-yl)methyl)phenyl) methanesulfonamide]	31 µM	21 µM	–
CNc1nc(Cl)nc2c1ncn2Cc1cccc(C(=O)OC)c1 [ZA347, Methyl 3-((2-chloro-6-(methylamino)-9H-purin-9-yl)methyl)benzoate]	≤ 10 µM	–	–
CNc1nc(Cl)nc2c1ncn2Cc1ccccc1NS(C)(=O)=O [ZA364, N-(2-((2-chloro-6-(methylamino)-9H-purin-9-yl)methyl)phenyl)methanesulfonamide]	21 µM	–	–
CNc1nc(Cl)nc2c1ncn2Cc1ccc(OC)c(Cl)c1 [FE150, 2-chloro-9-(3-chloro-4-methoxybenzyl)-N-methyl-9H-purin-6-amine]	–	–	≤ 10 µM
CNc1nc(Cl)nc2c1ncn2Cc1cccc(Cl)c1 [ZA349, 2-chloro-9-(3-chlorobenzyl)-N-methyl-9H-purin-6-amine]	–	–	≤ 10 µM
CNc1nc(Cl)nc2c1ncn2Cc1ccc(C(=O)OC)cc1 [ZA311, Methyl 4-((2-chloro-6-(methylamino)-9H-purin-9-yl)methyl)benzoate]	–	–	≤ 10 µM
